From patent US10787443B2, “RAF-degrading conjugate compounds” (ZAMBONI CHEM SOLUTIONS INC., priority 2017, dated 2020)
“Also recorded” adds a separate entry of the source. Where a name gives a salt, the structure may show the parent alone.

Key:
[1] = target: T1, CRAF (CRAF fusion protein with a fluorescent protein) in Calu-6 cells (Homo sapiens, UniProt P04049); experiment: Degradation assay, fluorescent CRAF fusion protein levels in Calu-6 cells (IncuCyte S3); assay type: cell-based; settings: fluorescence/confluence
T1 construct: fluorescent protein (green); expressed in transfected cells; host or cells: Calu-6
T1 sequence (P04049 whole entry, the tested form may be a part): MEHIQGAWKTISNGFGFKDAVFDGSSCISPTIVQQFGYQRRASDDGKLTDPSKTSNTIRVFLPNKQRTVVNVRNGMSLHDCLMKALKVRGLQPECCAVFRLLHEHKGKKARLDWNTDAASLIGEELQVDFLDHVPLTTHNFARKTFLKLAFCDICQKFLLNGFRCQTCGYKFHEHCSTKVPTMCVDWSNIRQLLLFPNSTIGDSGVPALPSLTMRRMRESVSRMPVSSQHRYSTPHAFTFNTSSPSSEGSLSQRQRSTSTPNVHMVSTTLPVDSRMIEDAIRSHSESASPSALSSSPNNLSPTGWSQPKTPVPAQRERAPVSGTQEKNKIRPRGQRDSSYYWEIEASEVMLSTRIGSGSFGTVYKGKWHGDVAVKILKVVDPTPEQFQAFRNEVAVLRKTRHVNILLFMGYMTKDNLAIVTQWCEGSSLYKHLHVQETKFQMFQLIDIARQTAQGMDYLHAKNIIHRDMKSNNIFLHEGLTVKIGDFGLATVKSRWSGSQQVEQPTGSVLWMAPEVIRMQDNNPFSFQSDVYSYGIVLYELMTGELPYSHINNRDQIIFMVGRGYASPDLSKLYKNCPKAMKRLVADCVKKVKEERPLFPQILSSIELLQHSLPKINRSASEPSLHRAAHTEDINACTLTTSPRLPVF
Procedure: Calu-6 cells were stably transfected with a CRAF fusion protein with a fluorescent protein attached to the C-terminus of CRAF in order to monitor protein levels via fluorescence. Cells were seeded into a 96-well plate and allowed to adhere overnight. The next day cells are treated with compounds at the doses indicated in the table below and analyzed over time. Data was collected by monitoring Fluorescent CRAF protein levels an IncuCyte S3 Live Cell Analysis System (Essen BioScience). […] Calu6_CRAF fusion protein cells are imaged and analyzed using an Incucyte S3 live-cell analysis system (Essen Biosciences). Fluorescence signal is due to expression of the fluorescent protein covalently fused to the C-terminus of CRAF and degradation is assessed by measuring fluorescence/confluence (˜cell number) after treatment with compounds of the present disclosure. Phase contrast images are analyzed using Incucyte S3 software. Percent confluence is calculated using a phase contrast mask to quantify the area of the image occupied by the Calu6_CRAF fusion protein cells. Fluorescent images are analyzed using Incucyte S3 software. Green Corrected Units (GCU) is calculated using a fluorescence mask to quantify the area of the image occupied by green fluorescent signal and the intensity of the signal. […] As discussed above, degradation is measured as a function of fluorescence/confluence.

[2] = tested on: GST-Braf kinase domain and biotinylated E3 substrate adapter (VHL/EloB/EloC complex or CRBN318-425); experiment: Dimerization assay (AlphaScreen/AlphaLisa), RAF/E3 dimerization; assay type: binding; settings: relative value, compounds 4 fold serial dilutions from 20 μM

RAF/E3 Dimerization ([2]; Table 17) | Compound | other results
+++ (50% > RAF/E3 Dimerization ≥ 25) | Cc1ncc(NC(=O)c2cccc(C(F)(F)F)c2)cc1-c1cnc(OCCOCCOCC(=O)NCCCCCCc2cccc3c2CN(C2CCC(=O)NC2=O)C3=O)c(N2CCOCC2)c1 (stereo not drawn) [Compound 2.015, N-(6′-(2-(2-(2-((6-(2-(2,6-dioxopiperidin-3-yl)-1-oxoisoindolin-4-yl)hexyl)amino)-2-oxoethoxy)ethoxy)ethoxy)-2-methyl-5′-morpholino-[3,3′-bipyridin]-5-yl)-3-(trifluoromethyl)benzamide] | CRAF degradation in Calu6 cells over time ([1]; 2 μM, FIG. 10): CRAF degradation
+++++ (RAF/E3 Dimerization ≥75%) | Cc1ncc(NC(=O)c2cccc(C(F)(F)F)c2)cc1-c1cnc(OCCOCCOCCOCCOCC(=O)NCCCCCc2cccc3c2CN(C2CCC(=O)NC2=O)C3=O)c(N2CCOCC2)c1 (stereo not drawn) [Compound 2.014, N-(5-(2-(2,6-dioxopiperidin-3-yl)-1-oxoisoindolin-4-yl)pentyl)-14-((2′-methyl-5-morpholino-5′-(3-(trifluoromethyl)benzamido)-[3,3′-bipyridin]-6-yl)oxy)-3,6,9,12-tetraoxatetradecan-1-amide] | CRAF degradation in Calu6 cells over time ([1]; 12.5 μM, FIG. 7): CRAF degradation
+++++ (RAF/E3 Dimerization ≥75%) | Cc1ncc(NC(=O)c2cccc(C(F)(F)F)c2)cc1-c1cnc(OCCOCCOCCOCCOCCOCC(=O)N[C@@H](C(=O)N2C[C@H](O)C[C@H]2C(=O)N[C@@H](C)c2ccc(-c3scnc3C)cc2)C(C)(C)C)c(N2CCOCC2)c1 [Compound 2.001, (2S,4R)-1-((R)-2-(tert-butyl)-20-((2′-methyl-5-morpholino-5′-(3-(trifluoromethyl)-benzamido)-[3,3′-bipyridin]-6-yl)oxy)-4-oxo-6,9,12,15,18-pentaoxa-3-azaicosan-1-oyl)-4-hydroxy-N—((S)-1-(4-(4-methylthiazol-5-yl)phenyl)ethyl)pyrrolidine-2-carboxamide] | CRAF degradation in Calu6 cells over time ([1]; 3 μM, FIG. 4, 8, 9): CRAF degradation
– | Cc1ncc(NC(=O)c2cccc(C(F)(F)F)c2)cc1-c1cnc(OCCOCCOCCOCc2cn(CCCCCC(=O)N[C@@H](C(=O)N3C[C@@H](O)C[C@@H]3C(=O)N[C@@H](C)c3ccc(-c4scnc4C)cc3)C(C)(C)C)nn2)c(N2CCOCC2)c1 [Compound 2.010, (2R,4S)-1-((R)-3,3-dimethyl-2-(6-(4-((2-(2-(2-((2′-methyl-5-morpholino-5′-(3-(trifluoromethyl)benzamido)-[3,3′-bipyridin]-6-yl)oxy)ethoxy)ethoxy)ethoxy)methyl)-1H-1,2,3-triazol-1-yl)hexanamido)butanoyl)-4-hydroxy-N—((S)-1-(4-(4-methylthiazol-5-yl)phenyl)ethyl)pyrrolidine-2-carboxamide] | CRAF degradation in Calu6 cells over time ([1]; 1.67 μM, FIG. 13, FIG. 14): no CRAF degradation; also recorded: does not significantly reduce the relative amount of CRAF
+ (5% > RAF/E3 Dimerization) | Cc1ccc(NC(=O)c2cccc(C(F)(F)F)c2)cc1-c1cnc(OCCc2cn(CCCCCC(=O)Nc3cccc4c3C(=O)N(C3CCC(=O)NC3=O)C4=O)nn2)c(N2CCOCC2)c1 (stereo not drawn) [Compound 1.009, N-(3-(6-(2-(1-(6-((2-(2,6-dioxopiperidin-3-yl)-1,3-dioxoisoindolin-4-yl)amino)-6-oxohexyl)-1H-1,2,3-triazol-4-yl)ethoxy)-5-morpholinopyridin-3-yl)-4-methylphenyl)-3-(trifluoromethyl)benzamide] | CRAF degradation in Calu6 cells over time ([1]; 3 μM, FIG. 4, 8, 9): CRAF degradation
+ (5% > RAF/E3 Dimerization) | Cc1ncc(NC(=O)c2cccc(C(F)(F)F)c2)cc1-c1cnc(OCCOCCOCCOCCN[C@@H](C(=O)N2C[C@H](O)C[C@H]2C(=O)N[C@@H](C)c2ccc(-c3scnc3C)cc2)C(C)(C)C)c(N2CCOCC2)c1 [Compound 2.006, (R)-1-((2S,4R)-4-hydroxy-2-(((S)-1-(4-(4-methylthiazol-5-yl)phenyl)ethyl)carbamoyl)-pyrrolidin-1-yl)-3,3-dimethyl-N-(2-(2-(2-(2-((2′-methyl-5-morpholino-5′-(3-(trifluoro-methyl)benzamido)-[3,3′-bipyridin]-6-yl)oxy)ethoxy)ethoxy)ethoxy)ethyl)-1-oxobutan-2-aminium formate] | –
+ (5% > RAF/E3 Dimerization) | CC(NC(=O)c1ncnc(NCc2cn(CCCCCC(=O)Nc3cccc4c3C(=O)N(C3CCC(=O)NC3=O)C4=O)nn2)c1Cl)c1ncc(C(=O)Nc2cc(C(F)(F)F)c(Cl)cn2)s1 (stereo not drawn) [Compound 2.044, N-(5-chloro-4-(trifluoromethyl)pyridin-2-yl)-2-(1-(5-chloro-6-(((1-(6-((2-(2,6-dioxopiperidin-3-yl)-1,3-dioxoisoindolin-4-yl)amino)-6-oxohexyl)-H-1,2,3-triazol-4-yl)methyl)amino)pyrimidine-4-carboxamido)ethyl)thiazole-5-carboxamide] | –
+++ (50% > RAF/E3 Dimerization ≥ 25) | Cc1ncc(NC(=O)c2cccc(C(F)(F)F)c2)cc1-c1cnc(OCCOCCOCCOCC(=O)NCCOCCCc2cccc3c2CN(C2CCC(=O)NC2=O)C3=O)c(N2CCOCC2)c1 (stereo not drawn) [Compound 2.020, N-(6′-((18-(2-(2,6-dioxopiperidin-3-yl)-1-oxoisoindolin-4-yl)-11-oxo-3,6,9,15-tetraoxa-12-azaoctadecyl)oxy)-2-methyl-5′-morpholino-[3,3′-bipyridin]-5-yl)-3-(trifluoromethyl)-benzamide] | –
+ (5% > RAF/E3 Dimerization) | Cc1ncc(NC(=O)c2cccc(C(F)(F)F)c2)cc1-c1cnc(OCCOCCOCC(=O)NCCOCCCc2cccc3c2C(=O)N(C2CCC(=O)NC2=O)C3=O)c(N2CCOCC2)c1 (stereo not drawn) [Compound 2.023, N-(6′-((15-(2-(2,6-dioxopiperidin-3-yl)-1,3-dioxoisoindolin-4-yl)-8-oxo-3,6,12-trioxa-9-azapentadecyl)oxy)-2-methyl-5′-morpholino-[3,3′-bipyridin]-5-yl)-3-(trifluoromethyl)ben-zamide] | –
++ (25% > RAF/E3 Dimerization ≥ 5%) | Cc1ncc(NC(=O)c2cccc(C(F)(F)F)c2)cc1-c1cnc(OC2CCOCC2)c(N2CCN(CCCCc3cn(CCCCCC(=O)Nc4cccc5c4C(=O)N(C4CCC(=O)NC4=O)C5=O)nn3)CC2)c1 (stereo not drawn) [Compound 2.048, N-(5′-(4-(4-(1-(6-((2-(2,6-dioxopiperidin-3-yl)-1,3-dioxoisoindolin-4-yl)amino)-6-oxohexyl)-1H-1,2,3-triazol-4-yl)butyl)piperazin-1-yl)-2-methyl-6′-((tetrahydro-2H-pyran-4-yl)oxy)-[3,3′-bipyridin]-5-yl)-3-(trifluoromethyl)benzamide] | –
– | Cc1ncc(NC(=O)c2cccc(C(F)(F)F)c2)cc1-c1cnc(OCCCCCc2cn(CCCCCC(=O)Nc3cccc4c3C(=O)N(C3CCC(=O)NC3=O)C4=O)nn2)c(N2CCOCC2)c1 (stereo not drawn) [Compound 1.005, N-(6′-((5-(1-(6-((2-(2,6-dioxopiperidin-3-yl)-1,3-dioxoisoindolin-4-yl)amino)-6-oxohexyl)-1H-1,2,3-triazol-4-yl)pentyl)oxy)-2-methyl-5′-morpholino-[3,3′-bipyridin]-5-yl)-3-(trifluoromethyl)benzamide] | RAF/E3 Dimerization ([2]; Table 15): + (5% > RAF/E3 Dimerization)
– | Cc1ncc(NC(=O)c2cccc(C(F)(F)F)c2)cc1-c1cnc(OCCc2cn(CCCCCC(=O)Nc3cccc4c3C(=O)N(C3CCC(=O)NC3=O)C4=O)nn2)c(N2CCOCC2)c1 (stereo not drawn) [Compound 1.002, N-(6′-(2-(1-(6-((2-(2,6-dioxopiperidin-3-yl)-1,3-dioxoisoindolin-4-yl)amino)-6-oxohexyl)-1H-1,2,3-triazol-4-yl)ethoxy)-2-methyl-5′-morpholino-[3,3′-bipyridin]-5-yl)-3-(trifluoromethyl)benzamide] | RAF/E3 Dimerization ([2]; Table 15): + (5% > RAF/E3 Dimerization)
+ (5% > RAF/E3 Dimerization) | CNc1ncc2cc(-c3cc(NC(=O)NCCOCCOCC(=O)N[C@@H](C(=O)N4C[C@H](O)C[C@H]4C(=O)N[C@@H](C)c4ccc(-c5scnc5C)cc4)C(C)(C)C)c(F)cc3C)c(C)nc2n1 [Compound 2.042, (2S,4R)-1-((R)-12-(tert-butyl)-1-((2-fluoro-4-methyl-5-(7-methyl-2-(methylamino)pyrido[2,3-d]pyrimidin-6-yl)phenyl)amino)-1,10-dioxo-5,8-dioxa-2,11-diazatridecan-13-oyl)-4-hydroxy-N—((S)-1-(4-(4-methylthiazol-5-yl)phenyl)ethyl)pyrrolidine-2-carboxamide] | –
+++ (50% > RAF/E3 Dimerization ≥ 25) | Cc1ncc(NC(=O)c2cccc(C(F)(F)F)c2)cc1-c1cnc(OCCOCCOCC(=O)NCCOCCCc2cccc3c2CN(C2CCC(=O)NC2=O)C3=O)c(N2CCOCC2)c1 (stereo not drawn) [Compound 2.019, N-(6′-((15-(2-(2,6-dioxopiperidin-3-yl)-1-oxoisoindolin-4-yl)-8-oxo-3,6,12-trioxa-9-azapentadecyl)oxy)-2-methyl-5′-morpholino-[3,3′-bipyridin]-5-yl)-3-(trifluoromethyl)benzamide] | –
